The values below come from patent EP4722212A1, “NOVEL COMPOUND FOR INHIBITING PROTEIN KINASES AND PHARMACEUTICAL COMPOSITION COMPRISING SAME” (Magicbullettherapeutics Co., Ltd., priority 2023, dated 2024).

The test system of one test is 22Rv1. The test is described as follows: Cell line inhibition analysis (CCK-8, 72 h). The format is cell-based. Conditions: Homo sapiens; 22Rv1, 72 hours; read-out: Cell growth inhibition GI50 22Rv1. In outline:
(§1)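 Cells attached one day, then treated 72 h at 37 °C with nine 3-fold compound dilutions (final 0-50 µM) or DMSO. Growth read by CCK-8 absorbance at 450 nm after 2 h, medium-blank corrected, with a day-0 plate defining 0% growth; GI50 calculated.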

Another test concerns C4-2B. Briefly: Cell line inhibition analysis (CCK-8, 72 h). The format is cell-based. The conditions noted are these: read-out: Cell growth inhibition GI50 C4-2B. In outline:
as §1

A further test concerns the target CDK4/CYCLIN D2 (Homo sapiens, UniProt P11802). Briefly: Kinase panel. In kind it is biochemical. Conditions: CDK4/CYCLIN D2, 1 µM; read-out: residual enzyme activity. In outline: (§2)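 Kinase profiling used a full biochemical panel. Test compound concentration: 1 µM, single point. Output: calculated residual activity, with kinases at or under 40% reported.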
The target of a further test is PKMYT1 (Homo sapiens, UniProt Q99640). Briefly: Kinase panel. The format is biochemical. The conditions noted are these: PKMYT1, 1 µM; read-out: residual enzyme activity. In outline:
as §2

The next test has as its target CDK8/cyclin C (Homo sapiens, UniProt P49336). Briefly: Kinase panel. The format is biochemical. Conditions: read-out: residual enzyme activity. The method, boiled down:
as §2

PKMYT1, sequence (Q99640 whole entry, species assumed): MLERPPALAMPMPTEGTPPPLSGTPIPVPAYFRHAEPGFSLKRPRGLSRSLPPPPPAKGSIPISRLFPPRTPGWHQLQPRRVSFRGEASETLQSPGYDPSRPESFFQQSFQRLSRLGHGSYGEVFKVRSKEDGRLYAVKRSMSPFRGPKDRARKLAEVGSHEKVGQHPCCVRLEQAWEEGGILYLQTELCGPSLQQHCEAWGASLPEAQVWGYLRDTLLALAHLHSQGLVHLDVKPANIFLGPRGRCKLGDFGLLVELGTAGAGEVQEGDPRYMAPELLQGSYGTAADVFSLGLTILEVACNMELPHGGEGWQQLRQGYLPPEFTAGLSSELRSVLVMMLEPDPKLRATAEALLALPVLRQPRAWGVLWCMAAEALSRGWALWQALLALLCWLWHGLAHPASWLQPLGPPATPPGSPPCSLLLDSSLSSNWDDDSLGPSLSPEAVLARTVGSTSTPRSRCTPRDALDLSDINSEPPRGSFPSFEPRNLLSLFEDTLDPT
CDK4/CYCLIN D2, sequence (P11802 whole entry, species assumed): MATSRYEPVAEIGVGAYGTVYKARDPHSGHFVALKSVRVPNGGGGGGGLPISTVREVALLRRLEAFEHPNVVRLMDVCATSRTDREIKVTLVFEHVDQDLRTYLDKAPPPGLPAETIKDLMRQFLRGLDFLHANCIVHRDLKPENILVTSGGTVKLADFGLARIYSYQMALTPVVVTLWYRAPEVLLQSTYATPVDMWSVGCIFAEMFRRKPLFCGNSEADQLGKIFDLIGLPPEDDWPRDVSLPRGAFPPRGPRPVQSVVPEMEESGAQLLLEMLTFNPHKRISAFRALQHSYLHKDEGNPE
CDK4/CYCLIN D2, sequence (P30279 whole entry partner, species assumed): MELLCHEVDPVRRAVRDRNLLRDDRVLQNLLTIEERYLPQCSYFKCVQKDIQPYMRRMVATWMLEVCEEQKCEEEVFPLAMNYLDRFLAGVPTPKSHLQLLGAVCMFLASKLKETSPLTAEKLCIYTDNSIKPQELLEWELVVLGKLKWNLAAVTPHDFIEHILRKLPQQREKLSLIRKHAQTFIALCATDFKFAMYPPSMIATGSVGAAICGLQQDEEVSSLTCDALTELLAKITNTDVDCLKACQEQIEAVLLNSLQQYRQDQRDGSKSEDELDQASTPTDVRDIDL
CDK8/cyclin C, sequence (P49336 whole entry, species assumed): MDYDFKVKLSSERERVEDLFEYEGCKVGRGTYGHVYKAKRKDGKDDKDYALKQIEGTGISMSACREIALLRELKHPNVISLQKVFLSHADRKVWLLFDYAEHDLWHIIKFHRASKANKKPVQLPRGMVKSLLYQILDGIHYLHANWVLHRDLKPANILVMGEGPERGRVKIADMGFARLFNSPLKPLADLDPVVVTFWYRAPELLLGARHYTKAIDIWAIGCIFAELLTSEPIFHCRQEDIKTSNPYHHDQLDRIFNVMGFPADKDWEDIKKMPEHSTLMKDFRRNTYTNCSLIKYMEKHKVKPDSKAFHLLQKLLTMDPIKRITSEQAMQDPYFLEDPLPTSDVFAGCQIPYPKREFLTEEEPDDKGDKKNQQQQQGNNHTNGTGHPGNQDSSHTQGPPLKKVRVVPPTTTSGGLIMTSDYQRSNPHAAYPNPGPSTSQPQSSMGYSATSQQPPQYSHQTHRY
CDK8/cyclin C, sequence (P24863 whole entry partner, species assumed): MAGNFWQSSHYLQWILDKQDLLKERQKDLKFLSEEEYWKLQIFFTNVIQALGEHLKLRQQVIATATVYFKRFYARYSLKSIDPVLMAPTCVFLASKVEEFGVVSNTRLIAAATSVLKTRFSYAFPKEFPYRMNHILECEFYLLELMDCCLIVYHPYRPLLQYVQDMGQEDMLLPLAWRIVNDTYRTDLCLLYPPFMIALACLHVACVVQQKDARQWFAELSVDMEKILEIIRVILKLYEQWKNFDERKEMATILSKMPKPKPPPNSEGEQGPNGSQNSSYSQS

`Cc1cn(-c2cc(C(=O)Nc3ccc(C)c(N4Cc5cnc(NC6CC6)nc5C5(CC5)C4=O)c3)cc(C(F)(F)F)c2)cn1` [Compound 8, N-(3-(2'-(cyclopropylamino)-7'-oxo-5'H-spiro[cyclopropane-1,8'-pyrido[4,3-d]pyrimidine]-6'(7'H)-yl)-4-methylphenyl)-3-(4-methyl-1H-imidazol-1-yl)-5-(trifluoromethyl)benzamide]: the GI50 with 22Rv1 and in the test with C4-2B was under 1 µM each time. Also, on CDK4/CYCLIN D2, the remaining activity at 1 µM is over 40%.
`Cc1ccc(Nc2ncc3c(n2)C2(CC2)C(=O)N(c2cc(NC(=O)c4cccc(C(F)(F)F)c4)ccc2C)C3)cn1` [Compound 51, N-(4-methyl-3-(2'-((6-methylpyridin-3-yl)amino)-7'-oxo-5'H-spiro[cyclopropane-1,8'-pyrido[4,3-d]pyrimidine]-6'(7'H)-yl)phenyl)-3-(trifluoromethyl)benzamide]: the remaining activity at 1 µM at PKMYT1 and on CDK8/cyclin C was over 40% throughout.
